Source: patent publication US12077503B2, “Substituted cyclic amides and their use as herbicides” (FMC CORPORATION, priority 2015, dated 2024)

Tests used:
Type in all cases: in vivo
[1] = system: velvetleaf (Abutilon theophrasti); assay: Test G Post-Emergence Protocol; conditions: Abutilon theophrasti, post-emergence, 312 h; for pest or weed control at 15.625 g/ha: 15.625 g ai/ha, evaluated after 13 days (100=total damage to plant; 0=no damage to plant), read-out: Velvetleaf damage rating; for pest or weed control at 62.5 g/ha: 62.5 g ai/ha, read-out: Velvetleaf damage rating (100=total damage to plant; 0=no damage to plant); for pest or weed control at 62.5 g/ha / pest or weed control at 250 g/ha: evaluated after 13 days; for pest or weed control at 250 g/ha: 250 g ai/ha, read-out: damage to plant, Velvetleaf (100=total damage to plant; 0=no damage to plant)
In short: (§1)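 Eight days post-sowing, plants received a spray of test compound (acetone/water 50:50, 0.5% Tween 20) at 15.625, 62.5 or 250 g/ha. Glasshouse regime thereafter: 24/16 °C, 14 h light, 65% humidity. Assessment after 13 days on a 0–100 damage scale.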

[2] = system: ivy-leaved morning glory (Ipomoea hederacea); assay: Test G Post-Emergence Protocol; conditions: Ipomoea, post-emergence, 312 h; for pest or weed control at 15.625 g/ha: 15.625 g ai/ha, evaluated after 13 days (100=total damage to plant; 0=no damage to plant), read-out: Morningglory, Ivy-leaved damage rating; for pest or weed control at 62.5 g/ha: 62.5 g ai/ha, read-out: Morningglory, Ivy-leaved damage rating (100=total damage to plant; 0=no damage to plant); for pest or weed control at 62.5 g/ha / pest or weed control at 250 g/ha: evaluated after 13 days; for pest or weed control at 250 g/ha: 250 g ai/ha, read-out: damage to plant, Morningglory, Ivy-leaved (100=total damage to plant; 0=no damage to plant)
In short: as §1

[3] = system: redroot pigweed (Amaranthus retroflexus); assay: Test G Post-Emergence Protocol; conditions: Amaranthus retroflexus, post-emergence, 312 h; for pest or weed control at 15.625 g/ha: 15.625 g ai/ha, evaluated after 13 days (100=total damage to plant; 0=no damage to plant), read-out: Pigweed, Redroot damage rating; for pest or weed control at 62.5 g/ha: 62.5 g ai/ha, read-out: Pigweed, Redroot damage rating (100=total damage to plant; 0=no damage to plant); for pest or weed control at 62.5 g/ha / pest or weed control at 250 g/ha: evaluated after 13 days; for pest or weed control at 250 g/ha: 250 g ai/ha, read-out: damage to plant, Pigweed, Redroot (100=total damage to plant; 0=no damage to plant)
In short: as §1

[4] = system: giant foxtail (Setaria faberi); assay: Test G Post-Emergence Protocol; conditions: Setaria faberi, post-emergence, 312 h; for pest or weed control at 15.625 g/ha: 15.625 g ai/ha, evaluated after 13 days (100=total damage to plant; 0=no damage to plant), read-out: Foxtail, Giant damage rating; for pest or weed control at 62.5 g/ha: 62.5 g ai/ha, read-out: Foxtail, Giant damage rating (100=total damage to plant; 0=no damage to plant); for pest or weed control at 62.5 g/ha / pest or weed control at 250 g/ha: evaluated after 13 days; for pest or weed control at 250 g/ha: 250 g ai/ha, read-out: damage to plant, Foxtail, Giant (100=total damage to plant; 0=no damage to plant)
In short: as §1

corn (Zea mays) [5] = assay: Test G Post-Emergence Protocol; conditions: Zea mays, post-emergence, 312 h; for plant injury at 15.625 g/ha: 15.625 g ai/ha, evaluated after 13 days (100=total damage to plant; 0=no damage to plant), read-out: Corn damage rating; for plant injury at 62.5 g/ha: 62.5 g ai/ha, read-out: Corn damage rating (100=total damage to plant; 0=no damage to plant); for plant injury at 62.5 g/ha / plant injury at 250 g/ha: evaluated after 13 days; for plant injury at 250 g/ha: 250 g ai/ha, read-out: damage to plant, Corn (100=total damage to plant; 0=no damage to plant)
In short: as §1

[6] = system: barnyardgrass (Echinochloa crus-galli); assay: Test G Post-Emergence Protocol; conditions: Echinochloa crus-galli, post-emergence, 312 h; for pest or weed control at 15.625 g/ha: 15.625 g ai/ha, evaluated after 13 days (100=total damage to plant; 0=no damage to plant), read-out: Barnyardgrass damage rating; for pest or weed control at 62.5 g/ha: 62.5 g ai/ha, read-out: Barnyardgrass damage rating (100=total damage to plant; 0=no damage to plant); for pest or weed control at 62.5 g/ha / pest or weed control at 250 g/ha: evaluated after 13 days; for pest or weed control at 250 g/ha: 250 g ai/ha, read-out: damage to plant, Barnyardgrass (100=total damage to plant; 0=no damage to plant)
In short: as §1

[7] = system: velvetleaf (Abutilon theophrasti); assay: Test G Pre-Emergence Protocol; conditions: Abutilon theophrasti, pre-emergence, 312 h, evaluated after 13 days; for pest or weed control at 15.625 g/ha: 15.625 g ai/ha; for pest or weed control at 15.625 g/ha / pest or weed control at 250 g/ha: read-out: Velvetleaf damage rating (100=total damage to plant; 0=no damage to plant); for pest or weed control at 62.5 g/ha: 62.5 g ai/ha, 100=total damage to plant, 0=no damage to plant, read-out: plant damage rating, Velvetleaf; for pest or weed control at 250 g/ha: 250 g ai/ha
In short: (§2)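 Under a 24/16° C day/night regime with 14 h light and 65% humidity, sown pots were sprayed after one day with compound (15.625, 62.5 or 250 g/ha; 50:50 acetone/water, 0.5% Tween 20). Damage was assessed visually 13 days later, 0 to 100.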

[8] = system: ivy-leaved morning glory (Ipomoea hederacea); assay: Test G Pre-Emergence Protocol; conditions: Ipomoea, pre-emergence, 312 h, evaluated after 13 days; for pest or weed control at 15.625 g/ha: 15.625 g ai/ha, read-out: Morning-glory, Ivy-leaved damage rating (100=total damage to plant; 0=no damage to plant); for pest or weed control at 62.5 g/ha: 62.5 g ai/ha, 100=total damage to plant, 0=no damage to plant, read-out: plant damage rating, Morningglory, Ivy-leaved; for pest or weed control at 250 g/ha: 250 g ai/ha, read-out: Morningglory, Ivy-leaved damage rating (100=total damage to plant; 0=no damage to plant)
In short: as §2

[9] = system: redroot pigweed (Amaranthus retroflexus); assay: Test G Pre-Emergence Protocol; conditions: Amaranthus retroflexus, pre-emergence, 312 h, evaluated after 13 days; for pest or weed control at 15.625 g/ha: 15.625 g ai/ha; for pest or weed control at 15.625 g/ha / pest or weed control at 250 g/ha: read-out: Pigweed, Redroot damage rating (100=total damage to plant; 0=no damage to plant); for pest or weed control at 62.5 g/ha: 62.5 g ai/ha, 100=total damage to plant, 0=no damage to plant, read-out: plant damage rating, Pigweed, Redroot; for pest or weed control at 250 g/ha: 250 g ai/ha
In short: as §2

[10] = system: giant foxtail (Setaria faberi); assay: Test G Pre-Emergence Protocol; conditions: Setaria faberi, pre-emergence, 312 h, evaluated after 13 days; for pest or weed control at 15.625 g/ha: 15.625 g ai/ha; for pest or weed control at 15.625 g/ha / pest or weed control at 250 g/ha: read-out: Foxtail, Giant damage rating (100=total damage to plant; 0=no damage to plant); for pest or weed control at 62.5 g/ha: 62.5 g ai/ha, 100=total damage to plant, 0=no damage to plant, read-out: plant damage rating, Foxtail, Giant; for pest or weed control at 250 g/ha: 250 g ai/ha
In short: as §2

corn (Zea mays) [11] = assay: Test G Pre-Emergence Protocol; conditions: Zea mays, pre-emergence, 312 h, evaluated after 13 days; for plant injury at 15.625 g/ha: 15.625 g ai/ha; for plant injury at 15.625 g/ha / plant injury at 250 g/ha: read-out: Corn damage rating (100=total damage to plant; 0=no damage to plant); for plant injury at 62.5 g/ha: 62.5 g ai/ha, 100=total damage to plant, 0=no damage to plant, read-out: plant damage rating, Corn; for plant injury at 250 g/ha: 250 g ai/ha
In short: as §2

[12] = system: barnyardgrass (Echinochloa crus-galli); assay: Test G Pre-Emergence Protocol; conditions: Echinochloa crus-galli, pre-emergence, 312 h, evaluated after 13 days; for pest or weed control at 15.625 g/ha: 15.625 g ai/ha, read-out: Barnyard grass damage rating (100=total damage to plant; 0=no damage to plant); for pest or weed control at 62.5 g/ha: 62.5 g ai/ha, 100=total damage to plant, 0=no damage to plant, read-out: plant damage rating, Barnyardgrass; for pest or weed control at 250 g/ha: 250 g ai/ha, read-out: Barnyardgrass damage rating (100=total damage to plant; 0=no damage to plant)
In short: as §2

| Structure (SMILES) | pest or weed control at 15.625 g/ha [1] [%] | pest or weed control at 62.5 g/ha [1] [%] | pest or weed control at 250 g/ha [1] [%] | pest or weed control at 15.625 g/ha [2] [%] | pest or weed control at 62.5 g/ha [2] [%] | pest or weed control at 250 g/ha [2] [%] | pest or weed control at 15.625 g/ha [3] [%] | pest or weed control at 62.5 g/ha [3] [%] | pest or weed control at 250 g/ha [3] [%] | pest or weed control at 15.625 g/ha [4] [%] | pest or weed control at 62.5 g/ha [4] [%] | pest or weed control at 250 g/ha [4] [%] | plant injury at 15.625 g/ha (corn (Zea mays) [5]) [%] | plant injury at 62.5 g/ha (corn (Zea mays) [5]) [%] | plant injury at 250 g/ha (corn (Zea mays) [5]) [%] | pest or weed control at 15.625 g/ha [6] [%] | pest or weed control at 62.5 g/ha [6] [%] | pest or weed control at 250 g/ha [6] [%] | pest or weed control at 62.5 g/ha [7] [%] | pest or weed control at 250 g/ha [7] [%] | further results |
| --- | --- | --- | --- | --- | --- | --- | --- | --- | --- | --- | --- | --- | --- | --- | --- | --- | --- | --- | --- | --- | --- |
| CN1C[C@H](c2ccc(C(F)(F)F)cc2)[C@@H](C(=O)Nc2ccc(C(F)(F)F)c(F)c2F)C1=O (racemic) [Compound 1451] | 0 | 0 | 0 | 0 | 0 | 0 | 0 | 0 | 0 | 0 | 0 | 0 | 0 | 0 | 0 | 0 | 0 | 0 | 0 | 0 | pest or weed control at 15.625 g/ha [7]: 0%; pest or weed control at 15.625 g/ha [8]: 0%; pest or weed control at 62.5 g/ha [8]: 0%; pest or weed control at 250 g/ha [8]: 0%; pest or weed control at 15.625 g/ha [9]: 0%; pest or weed control at 62.5 g/ha [9]: 0%; pest or weed control at 250 g/ha [9]: 0%; pest or weed control at 15.625 g/ha [10]: 0%; pest or weed control at 62.5 g/ha [10]: 0%; pest or weed control at 250 g/ha [10]: 0%; plant injury at 15.625 g/ha (corn (Zea mays) [11]): 0%; plant injury at 62.5 g/ha (corn (Zea mays) [11]): 0%; plant injury at 250 g/ha (corn (Zea mays) [11]): 0%; pest or weed control at 15.625 g/ha [12]: 0%; pest or weed control at 62.5 g/ha [12]: 0%; pest or weed control at 250 g/ha [12]: 0% |
| COc1ccc(OC)c([C@H]2CN(C)C(=O)[C@@H]2C(=O)Nc2ccccc2F)c1 (racemic) [Compound 1453] | 0 | 0 | 0 | 0 | 0 | 10 | 0 | 0 | 0 | 10 | 50 | 50 | 10 | 10 | 10 | 0 | 10 | 10 | 0 | 20 | pest or weed control at 15.625 g/ha [8]: 0%; pest or weed control at 62.5 g/ha [8]: 0%; pest or weed control at 250 g/ha [8]: 0%; pest or weed control at 15.625 g/ha [9]: 0%; pest or weed control at 62.5 g/ha [9]: 0%; pest or weed control at 250 g/ha [9]: 0%; pest or weed control at 15.625 g/ha [10]: 40%; pest or weed control at 62.5 g/ha [10]: 60%; pest or weed control at 250 g/ha [10]: 90%; plant injury at 15.625 g/ha (corn (Zea mays) [11]): 0%; plant injury at 62.5 g/ha (corn (Zea mays) [11]): 0%; plant injury at 250 g/ha (corn (Zea mays) [11]): 0%; pest or weed control at 15.625 g/ha [12]: 20%; pest or weed control at 62.5 g/ha [12]: 40%; pest or weed control at 250 g/ha [12]: 90% |
| COc1ccc([C@H]2CN(C)C(=O)[C@@H]2C(=O)Nc2ccccc2F)c(C)c1 (racemic) [Compound 1455] | 0 | 0 | 10 | 0 | 0 | 20 | 0 | 0 | 40 | 10 | 10 | 50 | 10 | 10 | 20 | 0 | 0 | 20 | 30 | 0 | pest or weed control at 15.625 g/ha [7]: 0%; pest or weed control at 15.625 g/ha [8]: 0%; pest or weed control at 62.5 g/ha [8]: 0%; pest or weed control at 250 g/ha [8]: 20%; pest or weed control at 62.5 g/ha [9]: 0%; pest or weed control at 250 g/ha [9]: 0%; pest or weed control at 15.625 g/ha [10]: 30%; pest or weed control at 62.5 g/ha [10]: 70%; pest or weed control at 250 g/ha [10]: 90%; plant injury at 15.625 g/ha (corn (Zea mays) [11]): 0%; plant injury at 62.5 g/ha (corn (Zea mays) [11]): 0%; plant injury at 250 g/ha (corn (Zea mays) [11]): 10%; pest or weed control at 15.625 g/ha [12]: 30%; pest or weed control at 62.5 g/ha [12]: 70%; pest or weed control at 250 g/ha [12]: 90% |
